In data set [1] the test system is Intestinal Phosphate Absorption. Briefly: Intestinal phosphate absorption: oral 33P dose after gavage of phosphate binder. It is filed as in vivo, rats. The following applies: for amount of 33P remaining in the digestive tract compared with water (FIG. 3A) / serum 33P levels compared with water (FIG. 3B): 10 mg calcium, 14.4 mg Renagel or novel binder (Table 1); for binding / absorption of an oral 33P dose (summary): administered orally in rats; for 33P remaining in the intestine compared to Renagel, dose response study (FIG. 4A) / serum 33P levels compared to Renagel, dose response study (FIG. 4B): two highest levels of DAB-8 and DAB-16, highest level of DAB-64, vs 14.4 mg Renagel. As to the method:
(§1) Animals. Male Sprague-Dawley rats (Harlan Sprague-Dawley, Madison, Wis.) weighing approximately 120 grams were used in all experiments.
In experiments to measure ^33P absorption, the rats were fed a laboratory chow diet (Lab Diet 5012, Richmond, Ind.) containing 1% calcium and 0.7% phosphorus ad libitum for less than one week prior to the experiment.
Intestinal Phosphate Absorption. Following an overnight fast, rats were administered 0.5 mL water or an oral phosphate binder dissolved in water via gastric gavage. A second dose of 0.5 mL containing 3 μCi ^33P (as H3PO4, specific activity 155.8 Ci/mg, New England Nuclear/Perkin Elmer, Boston, Mass.) in a 10, 50, or 100 mM KH2PO4 buffer at pH 7.4 was immediately administered via gastric gavage. Rats were killed by CO2 asphyxiation immediately or 60 minutes after the oral dose. The rats killed immediately (labeled “0 min control” in figures) were used to determine if the oral ^33P dose was properly administered and completely recovered.
Blood was collected via heart puncture and centrifuged at 1500×g for 15 minutes at 22° C. to yield serum. A suture was tied to the cranial end of the esophagus to contain liquid inside the stomach. The entire digestive tract was then removed and allowed to dissolve for several days in concentrated HNO3 (approximately 1 mL HNO3 per gram tissue). The exact volume of the dissolved digestive tract was determined by diluting the dissolved tissues to equal volumes with water.
The amount of radioactivity in total body serum and total volume of dissolved tissue was determined following liquid scintillation counting of 50 μL aliquots in triplicate (Tri-Carb Liquid Scintillation Analyzer, Perkin-Elmer/Packard, Boston, Mass.). Total body serum was estimated to be 40 mL serum/kg body weight. (Hawk T et al., 1999, Formulary for laboratory animals, Ames, Iowa: Iowa State University Press.)
(§2) Statistical analysis. Data are presented as means±standard error of the means (SEM). Treatment groups were compared by a fully factorial analysis of variance (ANOVA) and means were subjected to Tukey, Scheffe, and Fisher's Least-Significant-Difference (LSD) tests (Systat 5.2.1, Systat Software, Inc., Point Richmond, Calif.). Differences were considered significant if at least two of the tests detected significance with a p-value <0.05, unless specified otherwise.
Materials and Methods. The relevant materials and methods were the same as set forth above except that instead of using “0.5 mL of water or 39.5 mg calcium acetate, 14.4 mg RENAGEL, or up to 132.8 mg of test dendrimer,” the following was used “0.5 mL of water, 14.4 mg RENAGEL or 10 mg DAB-8 as the hydroacetate or hydrocitrate form dissolved in water.”

Data set [2] has the same test system. As to the kind of experiment: Fecal calcium and phosphorus measurements, binder in purified diet. The class given is in vivo, rats. The following applies: for mg P per gram feces: 48 h fecal collection, mean ± SEM, control 3.79 ± 0.18; for fecal phosphorus levels versus control diet or diet with 0.15% Renagel / increase in fecal phosphorus versus the increase from excess calcium or an equivalent amount of Renagel: 0.15% of diet; for fecal phosphorus levels versus control diet or diet with 0.15% Renagel: DAB-8 and DAB-16 significant by Fisher's LSD test only; for increase in fecal phosphorus versus the increase from excess calcium or an equivalent amount of Renagel: Fisher's LSD test only.
Excerpt: as §1
In experiments to measure fecal calcium and phosphorus levels, rats were fed purified diet described previously for 9 days. (Suda T et al., Biological activity of 25-hydroxyergocalciferol in rats, J Nutr 1970, 100:1049-1052). This diet was mixed with egg white protein (Harlan Teklad, Madison, Wis.) and contained 0.20% inorganic phosphorus and 0.47% calcium. The purified diet was supplemented with 100 μL soybean oil (Wesson oil, ConAgra Foods, Irvine, Calif.) containing 500 μg α-tocopherol, 60 μg menadione, 40 μg β-carotene, and 1.875 μg cholecalciferol three times each week.
Fecal calcium and phosphorus measurements. Rats were fed the purified diet described above or the same diet with 1.2% calcium, 0.15% Renagel®, or 0.15% DAB-4, DAB-8, or DAB-16 for 7 days. Rats were then moved to metabolic cages and fecal matter was collected for 48 hours. Fecal samples were frozen, lyophilized, and heated to over 600° C. overnight in a muffle oven. Remaining ash was then dissolved overnight in 25 mL 6 N HCl. The calcium concentration of the acid was determined by flame atomic absorption spectroscopy (Model 3110, Perkin Elmer, Norwalk, Conn.) using an aliquot of the dissolved ash diluted 1:40 with 1 g/L LaCl3. The phosphorus concentration of an aliquot of the dissolved ash was determined by a colorimetric assay described previously. (Itaya K et al., A new micromethod for the colorimetric determination of inorganic phosphate, Clin Chim Acta 1966, 14:361-366).
as §2

For a further data set, the system named is rats. As to the kind of experiment: Oral tolerability of DAB dendrimers fed in the diet. The class given is in vivo. The following applies: as hydrochlorides; for tolerability in rats: 0.15% of the diet; for tolerability in rats, observation: 0.3% or 0.6% of the diet, after 5 days (data not shown). An excerpt: Unfortunately, little is known regarding the toxicity of DAB dendrimers when administered orally. Previous research has shown DAB dendrimers to be cytotoxic in vitro (Duncan R et al., Dendrimer biocompatibility and toxicity, Adv Drug Deliv Rev 2005, 57:2215-2237) and when administered intravenously, the DAB dendrimers are lethal. (Schatzlein A G et al., Preferential liver gene expression with polypropylenimine dendrimers, J Control Release 2005, 101:247-258). In our experiments, however, the DAB dendrimers were well tolerated by rats when administered orally.

[3] abbreviates: 14.4 mg Renagel or 10 mg DAB-8 as acetate or citrate, 10 mM KH2PO4, 60 min.
[4] abbreviates: 10 mM KH2PO4, 60 min, listed as DAB-16-Cl.

As for “DAB-Am-8, Polypropylenimine octaamine Dendrimer citrate (Generation 2.0) [DAB-8 as citrate]”, in data set [1] (setting [3]), the “33P in the serum compared with vehicle pretreatment (FIG. 26)” value is on record as “significantly less” and the “33P retained in the gut compared with vehicle pretreatment (FIG. 25)” value is recorded as “significantly more”.

For the molecule `Cl.Cl.N[C@@H]1CO[C@@H]2[C@H]1OC[C@H]2N` [FC, 1,4:3,6-Dianhydro-2,5-diamino-2,5-dideoxy-D-iditol dihydrochloride], in data set [1] (10 mM KH2PO4, 60 min), the “amount of 33P remaining in the digestive tract compared with water (FIG. 3A)” value is “did not affect” and the “serum 33P levels compared with water (FIG. 3B)” value was “slight, but significant, decrease”. The “binding / absorption of an oral 33P dose (summary)” value in data set [1] is on record as “does not appear to bind”.

Take `CC(=O)[O-].CC(=O)[O-].[Ca+2]` [calcium, Calcium acetate, reference compound]: the “mg P per gram feces” value in data set [2] (1.20% Ca diet for 7 days) turned out to be 4.39 ± 0.23 mg P per gram feces. For the same molecule, the “fecal phosphorus versus control diet” value in data set [2] (1.20% calcium diet) is on record as “increased, though not significantly”. In data set [1] (10 mM KH2PO4, 60 min), the “amount of 33P remaining in the digestive tract compared with water (FIG. 3A)” value is “significantly increased” and the “serum 33P levels compared with water (FIG. 3B)” value is “significantly reduced”. The “33P remaining in the intestine after 60 minutes compared with water (FIG. 2A)” value in data set [1] (20 mg calcium (as calcium acetate) or 14.4 mg Renagel by gavage, 33P in 10, 50 or 100 mM KH2PO4, fasted rats) is on record as “significantly more”. The “33P bound in the intestine compared with 14.4 mg Renagel (FIG. 2A)” value in data set [1] (20 mg calcium, difference significant in 10 or 100 mM phosphate, 60 min) is “bound more ^33P in the intestine”. In data set [1] (calcium (printed 10 mg) or 14.4 mg Renagel, 10, 50 or 100 mM KH2PO4, 60 min), the “serum 33P levels compared with water (FIG. 2B)” value was “significant decrease”.

Turning to “Polypropylenimine hexadecaamine Dendrimer perhydrochloride [DAB-16]”, the “mg P per gram feces” value in data set [2] (0.15% of diet for 7 days) is on record as 4.78 ± 0.30 mg P per gram feces. Besides, in data set [2], the “fecal phosphorus levels versus control diet or diet with 0.15% Renagel” value is “significantly increased” and the “increase in fecal phosphorus versus the increase from excess calcium or an equivalent amount of Renagel” value was “significantly higher”. Besides, in data set [1] (10 mM KH2PO4, 60 min), the “33P retained in the digestive tract versus DAB-4 at an equivalent amount of free amino groups (FIG. 5A)” value was “bound significantly more”, the “33P retained in the digestive tract versus DAB-8 at equimolar amounts (FIG. 5A)” value is given as “retained significantly more”, the “amount of 33P remaining in the digestive tract compared to a comparable amount of Renagel (FIG. 3A)” value was “bound significantly more” and the “serum 33P levels compared to a comparable amount of Renagel (FIG. 3B)” value was “significantly reduced”. In data set [1] (10 mM KH2PO4, 60 min), the “amount of 33P remaining in the digestive tract compared with water (FIG. 3A)” value is on record as “significantly increased” and the “serum 33P levels compared with water (FIG. 3B)” value was “significantly reduced”. For the same molecule, in data set [1] (setting [4]), the “33P retained in the digestive tract versus DAB-8 at equimolar amounts (FIG. 5A)” value is on record as “significantly more” and the “amount of 33P remaining in the digestive tract compared to a comparable amount of Renagel (FIG. 3A)” value is reported as “significantly increased”. The “serum 33P levels compared with water, mechanism study (FIG. 5B)” value in data set [1] (13.9 mg, the only level of binder with significant effect) is listed as “significantly reduce”. In data set [1], the “33P remaining in the intestine compared to Renagel, dose response study (FIG. 4A)” value is “significantly increased” and the “serum 33P levels compared to Renagel, dose response study (FIG. 4B)” value (“serum 33P levels compared to Renagel” for short) is recorded as “significantly reduced”. Moreover, in the data set with rats, the tolerability in rats entry was “tolerated” and the “tolerability in rats, observation” value is “only softened stool was observed”.

In the case of `Cl.Cl.Cl.Cl.Cl.Cl.NCCCN(CCCN)CCCCN(CCCN)CCCN` [DAB-4, polypropylenimine tetraamine Dendrimer perhydrochloride], the “mg P per gram feces” value in data set [2] (0.15% of diet for 7 days) was 4.30 ± 0.13 mg P per gram feces. In addition, the “fecal phosphorus levels versus control diet or diet with 0.15% Renagel” value in data set [2] is “increased, though not significantly”. Besides, in data set [1] (10 mM KH2PO4, 60 min), the “amount of 33P remaining in the digestive tract compared with water (FIG. 3A)” value is reported as “significantly increased” and the “serum 33P levels compared with water (FIG. 3B)” value is “significantly reduced”. Moreover, in the data set on rats, the tolerability in rats entry is listed as “tolerated” and the “tolerability in rats, observation” value is given as “only softened stool was observed”.

On to `Cl.Cl.Cl.Cl.NC[C@@H](N)[C@@H](N)CN` [KB-54, erythro-1,2,3,4-tetraminobutane tetrahydrochloride], for which, in data set [1] (10 mM KH2PO4, 60 min), the “amount of 33P remaining in the digestive tract compared with water (FIG. 3A)” value was “significantly increased” and the “serum 33P levels compared with water (FIG. 3B)” value is “significantly reduced”. The “binding / absorption of an oral 33P dose (summary)” value in data set [1] is given as “reduced the absorption”.

For the molecule “Polypropylenimine tetrahexacontaamine Dendrimer perhydrochloride [DAB-64]”, in data set [1] (10 mM KH2PO4, 60 min), the “amount of 33P remaining in the digestive tract compared with water (FIG. 3A)” value is listed as “significantly increased” and the “serum 33P levels compared with water (FIG. 3B)” value is listed as “significantly reduced”. In data set [1], the “33P remaining in the intestine compared to Renagel, dose response study (FIG. 4A)” value is listed as “significantly increased” and the “serum 33P levels compared to Renagel” value is on record as “significantly reduced”.

For the molecule “polypropylenimine octaamine Dendrimer perhydrochloride [DAB-8]”, the “mg P per gram feces” value in data set [2] (0.15% of diet for 7 days) is reported as 4.71 ± 0.53 mg P per gram feces. Besides, in data set [2], the “fecal phosphorus levels versus control diet or diet with 0.15% Renagel” value was “significantly increased” and the “increase in fecal phosphorus versus the increase from excess calcium or an equivalent amount of Renagel” value is “significantly higher”. Further, in data set [1] (10 mM KH2PO4, 60 min), the “amount of 33P remaining in the digestive tract compared to a comparable amount of Renagel (FIG. 3A)” value was “bound significantly more”, the “serum 33P levels compared to a comparable amount of Renagel (FIG. 3B)” value is recorded as “significantly reduced”, the “amount of 33P remaining in the digestive tract compared with water (FIG. 3A)” value was “significantly increased” and the “serum 33P levels compared with water (FIG. 3B)” value is given as “significantly reduced”. The “amount of 33P remaining in the digestive tract compared to a comparable amount of Renagel (FIG. 3A)” value in data set [1] (10 mM KH2PO4, 60 min, listed as DAB-8-Cl) is given as “significantly increased”. Besides, in data set [1], the “33P remaining in the intestine compared to Renagel, dose response study (FIG. 4A)” value was “significantly increased” and the “serum 33P levels compared to Renagel” value is reported as “significantly reduced”. Also, in the data set with rats, the tolerability in rats entry is “tolerated” and the “tolerability in rats, observation” value is given as “only softened stool was observed”.

The record behind these values is patent US8114393B2, “Methods and compositions for phosphate binding” (Wisconsin Alumni Research Foundation, priority 2005, dated 2012).
